According to patent US12595253B2, “Benzamides of pyrazolylamino-pyrimidinyl derivatives, and compositions and methods thereof” (LYNK PHARMACEUTICALS CO. LTD., priority 2019, dated 2026):

How the values were obtained:
CYP3A4 = target: T1, CYP3A4 (Homo sapiens, UniProt P08684); test: CYPs inhibition in pooled human liver microsomes, probe substrate Midazolam; assay type: in vitro ADME
T1 construct: 0.2 mg/mL human liver microsomes was pre-incubated in 180 μL reaction mixture; from tissue; host or cells: pooled human liver microsomes
T1 sequence (P08684 whole entry): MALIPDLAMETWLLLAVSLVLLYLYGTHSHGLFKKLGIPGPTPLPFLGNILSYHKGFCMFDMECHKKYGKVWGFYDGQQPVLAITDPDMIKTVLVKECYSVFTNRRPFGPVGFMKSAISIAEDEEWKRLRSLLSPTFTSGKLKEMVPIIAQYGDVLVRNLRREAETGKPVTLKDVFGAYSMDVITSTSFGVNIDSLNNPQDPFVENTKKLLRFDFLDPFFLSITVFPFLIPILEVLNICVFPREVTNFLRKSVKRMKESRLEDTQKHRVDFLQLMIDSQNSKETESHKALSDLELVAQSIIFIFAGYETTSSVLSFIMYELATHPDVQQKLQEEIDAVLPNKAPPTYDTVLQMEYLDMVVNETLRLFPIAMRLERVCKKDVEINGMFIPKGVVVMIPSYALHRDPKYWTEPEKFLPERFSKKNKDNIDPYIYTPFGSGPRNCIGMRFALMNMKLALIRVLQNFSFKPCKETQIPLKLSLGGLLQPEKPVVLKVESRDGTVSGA
Protocol: (§1) The inhibitory potential of test articles in pooled human liver microsomes was evaluated by the method using a cocktail of CYP substrates. […] For the negative control well, the test articles was replaced with 20 μL reaction buffer. After 10 min of pre-incubation at 37° C., 20 μL 10 mM NADPH cofactor was added to the pre-reaction mixtures. After another 10 min incubation, the reaction was stopped by adding 400 μL of ice cold acetonitrile solution containing tolbutamide and labetalol served as internal standards. The incubation mixtures were centrifuged at 4000×g for 20 min, and then the supernatants were analyzed by LC-MS/MS after dilution. SigmaPlot was applied to plot % control activity versus the test compound concentrations, and for non-linear regression analysis of the data. IC50 values of test articles were determined using 3-parameter logistic equation.

CYP2D6 = target: T2, CYP2D6 (Homo sapiens, UniProt P10635); test: CYPs inhibition in pooled human liver microsomes, probe substrate Dextromethorphan; assay type: in vitro ADME
T2 construct: 0.2 mg/mL human liver microsomes was pre-incubated in 180 μL reaction mixture; from tissue; host or cells: pooled human liver microsomes
T2 sequence (P10635 whole entry): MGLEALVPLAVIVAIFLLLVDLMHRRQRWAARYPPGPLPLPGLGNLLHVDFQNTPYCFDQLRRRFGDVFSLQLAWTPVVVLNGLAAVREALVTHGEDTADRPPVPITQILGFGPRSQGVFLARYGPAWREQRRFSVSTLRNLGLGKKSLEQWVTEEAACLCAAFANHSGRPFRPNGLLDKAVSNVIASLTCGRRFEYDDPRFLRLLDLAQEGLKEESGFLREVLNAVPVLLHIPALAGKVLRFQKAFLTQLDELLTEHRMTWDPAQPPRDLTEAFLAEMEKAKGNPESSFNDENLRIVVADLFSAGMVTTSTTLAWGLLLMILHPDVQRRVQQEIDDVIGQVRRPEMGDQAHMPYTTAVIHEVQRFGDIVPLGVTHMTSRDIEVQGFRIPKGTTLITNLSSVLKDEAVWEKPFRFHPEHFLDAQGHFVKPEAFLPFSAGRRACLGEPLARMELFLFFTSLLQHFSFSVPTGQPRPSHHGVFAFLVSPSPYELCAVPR
Protocol: as §1

CYP2C19 = target: T3, CYP2C19 (Homo sapiens, UniProt P33261); test: CYPs inhibition in pooled human liver microsomes, probe substrate S-mephenytoin; assay type: in vitro ADME
T3 construct: 0.2 mg/mL human liver microsomes was pre-incubated in 180 μL reaction mixture; from tissue; host or cells: pooled human liver microsomes
Protocol: as §1

CYP1A2 = target: T4, CYP1A2 (Homo sapiens, UniProt P05177); test: CYPs inhibition in pooled human liver microsomes, probe substrate Phenacetin; assay type: in vitro ADME
T4 construct: 0.2 mg/mL human liver microsomes was pre-incubated in 180 μL reaction mixture; from tissue; host or cells: pooled human liver microsomes
T4 sequence (P05177 1-516): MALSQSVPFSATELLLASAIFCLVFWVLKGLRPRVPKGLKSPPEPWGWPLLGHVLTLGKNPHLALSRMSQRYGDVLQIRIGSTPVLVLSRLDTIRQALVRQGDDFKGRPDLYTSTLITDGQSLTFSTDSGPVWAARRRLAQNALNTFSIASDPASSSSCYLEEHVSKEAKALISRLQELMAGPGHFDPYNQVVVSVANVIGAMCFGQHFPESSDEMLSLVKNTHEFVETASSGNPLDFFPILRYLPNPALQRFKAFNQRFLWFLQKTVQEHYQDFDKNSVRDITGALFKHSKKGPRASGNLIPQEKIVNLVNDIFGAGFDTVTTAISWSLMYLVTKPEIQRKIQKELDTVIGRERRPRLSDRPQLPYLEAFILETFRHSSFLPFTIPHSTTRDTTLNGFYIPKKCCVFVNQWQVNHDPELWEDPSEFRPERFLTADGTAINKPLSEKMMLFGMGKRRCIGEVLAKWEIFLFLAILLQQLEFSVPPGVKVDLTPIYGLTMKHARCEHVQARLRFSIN
Protocol: as §1

CYP2C9 = target: T5, CYP2C9 (Homo sapiens, UniProt P11712); test: CYPs inhibition in pooled human liver microsomes, probe substrate Diclofenac; assay type: in vitro ADME
T5 construct: 0.2 mg/mL human liver microsomes was pre-incubated in 180 μL reaction mixture; from tissue; host or cells: pooled human liver microsomes
T5 sequence (P11712 whole entry): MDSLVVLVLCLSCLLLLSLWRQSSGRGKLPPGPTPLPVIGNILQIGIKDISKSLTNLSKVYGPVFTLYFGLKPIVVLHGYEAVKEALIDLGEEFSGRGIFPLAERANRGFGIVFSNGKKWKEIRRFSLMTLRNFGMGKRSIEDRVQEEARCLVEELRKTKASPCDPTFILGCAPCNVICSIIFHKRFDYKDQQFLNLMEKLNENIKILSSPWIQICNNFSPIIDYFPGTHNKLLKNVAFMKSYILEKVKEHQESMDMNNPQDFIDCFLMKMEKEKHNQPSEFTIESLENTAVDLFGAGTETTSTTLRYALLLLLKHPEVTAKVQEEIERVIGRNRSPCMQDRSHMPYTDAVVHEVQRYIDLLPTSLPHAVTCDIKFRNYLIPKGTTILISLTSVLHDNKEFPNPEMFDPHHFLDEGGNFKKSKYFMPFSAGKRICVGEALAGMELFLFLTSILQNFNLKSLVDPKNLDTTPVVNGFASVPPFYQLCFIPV
Protocol: as §1

JAK1 = target: T6, JAK1 (Homo sapiens, UniProt P23458); test: JAK1 microfluidic kinase assay (Caliper EZ Reader II, FAM labeled peptide substrate); assay type: biochemical
T6 construct: purchased Carna Biosciences
T6 sequence (P23458 whole entry): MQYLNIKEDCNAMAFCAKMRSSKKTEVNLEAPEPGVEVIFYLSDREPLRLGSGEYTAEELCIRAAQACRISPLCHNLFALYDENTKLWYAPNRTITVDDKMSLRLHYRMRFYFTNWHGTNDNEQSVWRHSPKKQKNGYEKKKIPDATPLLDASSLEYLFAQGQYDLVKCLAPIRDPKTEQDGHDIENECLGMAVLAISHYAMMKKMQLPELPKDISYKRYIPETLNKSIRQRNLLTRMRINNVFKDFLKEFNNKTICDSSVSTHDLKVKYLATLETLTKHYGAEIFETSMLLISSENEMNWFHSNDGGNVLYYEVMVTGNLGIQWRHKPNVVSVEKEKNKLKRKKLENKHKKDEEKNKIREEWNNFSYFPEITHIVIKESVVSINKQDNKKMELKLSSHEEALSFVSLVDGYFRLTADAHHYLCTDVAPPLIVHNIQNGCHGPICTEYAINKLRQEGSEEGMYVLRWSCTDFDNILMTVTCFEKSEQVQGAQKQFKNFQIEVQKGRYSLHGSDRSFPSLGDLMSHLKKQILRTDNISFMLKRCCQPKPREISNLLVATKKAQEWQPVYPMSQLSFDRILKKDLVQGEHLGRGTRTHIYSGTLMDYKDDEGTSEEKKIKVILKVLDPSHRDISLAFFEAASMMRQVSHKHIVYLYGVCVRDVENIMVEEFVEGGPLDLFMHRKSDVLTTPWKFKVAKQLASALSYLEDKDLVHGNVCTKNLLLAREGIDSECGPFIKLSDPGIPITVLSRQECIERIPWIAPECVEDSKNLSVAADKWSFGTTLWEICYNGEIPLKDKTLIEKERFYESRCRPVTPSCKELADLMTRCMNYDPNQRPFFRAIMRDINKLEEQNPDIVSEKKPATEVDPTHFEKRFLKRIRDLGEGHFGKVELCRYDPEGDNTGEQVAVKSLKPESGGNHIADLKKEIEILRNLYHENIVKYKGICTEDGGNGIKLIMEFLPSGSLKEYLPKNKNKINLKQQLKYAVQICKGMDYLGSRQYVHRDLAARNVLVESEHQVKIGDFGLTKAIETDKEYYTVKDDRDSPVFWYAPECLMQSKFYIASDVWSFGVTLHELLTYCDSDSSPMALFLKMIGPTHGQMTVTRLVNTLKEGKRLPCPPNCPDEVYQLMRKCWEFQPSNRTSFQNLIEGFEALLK
How it was run: (§2)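 Microfluidic mobility-shift kinase assay in 50 mM HEPES, 0.01% Brij35, 10 mM MgCl2, 2 mM DTT. IC50 values come from percent-inhibition curves normalised to uninhibited and enzyme-free controls.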

JAK2 = target: T7, JAK2 (Homo sapiens, UniProt O60674); test: JAK2 microfluidic kinase assay (Caliper EZ Reader II, FAM labeled peptide substrate); assay type: biochemical
T7 construct: purchased Carna Biosciences
T7 sequence (O60674 whole entry): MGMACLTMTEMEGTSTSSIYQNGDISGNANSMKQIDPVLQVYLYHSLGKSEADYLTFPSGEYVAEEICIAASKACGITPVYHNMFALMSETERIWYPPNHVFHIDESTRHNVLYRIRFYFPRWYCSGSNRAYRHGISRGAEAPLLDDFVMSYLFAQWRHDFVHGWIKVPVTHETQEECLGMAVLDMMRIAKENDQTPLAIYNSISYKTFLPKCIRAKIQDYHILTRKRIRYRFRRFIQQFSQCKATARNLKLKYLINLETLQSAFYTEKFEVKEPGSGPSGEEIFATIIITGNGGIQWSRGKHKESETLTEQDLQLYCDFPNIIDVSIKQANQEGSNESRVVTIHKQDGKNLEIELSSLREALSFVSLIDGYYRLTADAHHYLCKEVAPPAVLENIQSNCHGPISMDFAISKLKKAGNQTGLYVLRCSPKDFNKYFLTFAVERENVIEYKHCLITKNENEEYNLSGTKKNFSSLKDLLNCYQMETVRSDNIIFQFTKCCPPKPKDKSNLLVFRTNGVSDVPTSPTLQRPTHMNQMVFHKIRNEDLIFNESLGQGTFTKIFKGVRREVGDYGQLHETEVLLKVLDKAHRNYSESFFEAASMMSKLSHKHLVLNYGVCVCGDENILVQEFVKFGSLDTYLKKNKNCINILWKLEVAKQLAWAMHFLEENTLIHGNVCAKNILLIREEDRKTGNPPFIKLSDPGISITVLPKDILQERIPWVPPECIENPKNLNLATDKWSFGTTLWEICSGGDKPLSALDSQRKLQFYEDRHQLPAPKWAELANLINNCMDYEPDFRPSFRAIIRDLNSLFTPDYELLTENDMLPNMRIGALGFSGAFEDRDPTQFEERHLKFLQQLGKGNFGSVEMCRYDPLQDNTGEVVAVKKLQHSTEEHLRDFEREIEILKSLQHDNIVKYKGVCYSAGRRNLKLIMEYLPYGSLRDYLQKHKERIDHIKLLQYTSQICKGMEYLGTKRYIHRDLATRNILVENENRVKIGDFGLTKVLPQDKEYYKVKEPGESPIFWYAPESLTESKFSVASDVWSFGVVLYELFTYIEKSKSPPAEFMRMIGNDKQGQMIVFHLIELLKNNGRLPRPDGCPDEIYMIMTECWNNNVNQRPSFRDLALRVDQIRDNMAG
How it was run: as §2

TYK2 = target: T8, TYK2 (Homo sapiens, UniProt P29597); test: TYK2 microfluidic kinase assay (Caliper EZ Reader II, FAM labeled peptide substrate); assay type: biochemical; details: IC50 TYK2 ([…]) (1 mM ATP), TYK2 […], 1 mM ATP
T8 construct: purchased Carna Biosciences
T8 sequence (P29597 whole entry): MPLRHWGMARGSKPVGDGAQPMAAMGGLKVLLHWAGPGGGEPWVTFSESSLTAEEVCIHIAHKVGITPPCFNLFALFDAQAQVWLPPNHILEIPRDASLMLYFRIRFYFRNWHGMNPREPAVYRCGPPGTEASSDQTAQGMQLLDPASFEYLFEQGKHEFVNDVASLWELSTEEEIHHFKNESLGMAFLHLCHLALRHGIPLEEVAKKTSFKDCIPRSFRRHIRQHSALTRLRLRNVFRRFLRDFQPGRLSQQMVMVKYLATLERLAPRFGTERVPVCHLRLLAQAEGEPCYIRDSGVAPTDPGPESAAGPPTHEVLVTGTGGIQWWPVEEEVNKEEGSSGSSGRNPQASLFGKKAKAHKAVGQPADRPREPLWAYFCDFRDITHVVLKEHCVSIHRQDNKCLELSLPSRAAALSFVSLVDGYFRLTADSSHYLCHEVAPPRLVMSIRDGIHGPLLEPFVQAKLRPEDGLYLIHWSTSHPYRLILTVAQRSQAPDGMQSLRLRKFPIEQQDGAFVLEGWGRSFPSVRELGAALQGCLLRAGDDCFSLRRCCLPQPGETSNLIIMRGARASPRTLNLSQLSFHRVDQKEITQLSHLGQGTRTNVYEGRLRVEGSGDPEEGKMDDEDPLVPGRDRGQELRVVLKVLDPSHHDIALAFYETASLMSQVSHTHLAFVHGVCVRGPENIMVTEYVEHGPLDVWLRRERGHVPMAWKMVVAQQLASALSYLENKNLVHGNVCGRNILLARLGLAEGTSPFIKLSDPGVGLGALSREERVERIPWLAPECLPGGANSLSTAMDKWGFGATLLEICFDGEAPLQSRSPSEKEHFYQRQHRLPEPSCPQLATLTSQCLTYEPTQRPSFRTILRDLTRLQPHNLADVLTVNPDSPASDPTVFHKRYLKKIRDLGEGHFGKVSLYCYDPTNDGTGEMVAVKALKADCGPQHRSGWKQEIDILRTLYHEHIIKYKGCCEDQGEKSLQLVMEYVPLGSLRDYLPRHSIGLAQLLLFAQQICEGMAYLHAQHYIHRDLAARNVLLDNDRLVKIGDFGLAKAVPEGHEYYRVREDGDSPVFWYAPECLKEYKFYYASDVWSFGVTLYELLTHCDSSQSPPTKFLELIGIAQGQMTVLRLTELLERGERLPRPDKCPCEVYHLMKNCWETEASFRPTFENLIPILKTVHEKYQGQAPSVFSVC
How it was run: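 Assay run at ~10% substrate conversion in 50 mM HEPES pH buffer with Brij35, MgCl2 and DTT; compounds tested up to 5 μM in 3-fold dilutions at 1% DMSO. JAK1 reacted 120 min, JAK2 20 min, JAK2V617F 30 min, TYK2 10 min before an EDTA stop.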

[1] = Liver microsomes study, Phase I stability (RLM); assay type: in vitro ADME, rat; details: pH 7.4; rat liver microsomes 0.5 mg/mL, 1 μM test article; read-out: RLM Clint
How it was run: (§3)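 Phase I turnover was followed by LC/MS/MS of parent compound remaining at 0, 10, 30 and 90 min in NADPH-fortified rat or human microsomes, with cold acetonitrile quench. Half-life and intrinsic clearance were derived from the log-linear depletion slope and the inverse protein concentration.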

[2] = Liver microsomes study, Phase I stability (HLM); assay type: in vitro ADME, human; details: pH 7.4; human liver microsomes 0.5 mg/mL, 1 μM test article; read-out: HLM Clint
How it was run: as §3

JAK2V617F = target: T9, JAK2V617F (Homo sapiens, UniProt O60674, V617F); test: JAK2V617F microfluidic kinase assay (Caliper EZ Reader II, FAM labeled peptide substrate); assay type: biochemical; details: JAK2V617F 2.5 nM, 1 mM ATP
T9 construct: purchased Carna Biosciences
T9 sequence (O60674 whole entry V617F): as the sequence (O60674 whole entry) above, with V617F counted along it
How it was run: as §2

[3] = IC50 JAK1 (5 nM) (1 m MATP), JAK1 5 nM, 1 mM ATP
[4] = IC50 JAK2 ([…]) (1 mM ATP), 1 mM ATP

Row | SMILES | IC50 (CYP3A4) | IC50 (CYP2D6) | IC50 (CYP2C19) | IC50 (CYP1A2) | IC50 (CYP2C9) | IC50 (JAK1; [3]) | IC50 (JAK2; [4]) | IC50 (TYK2) | microsomal CLint at 1 μM [1] | IC50 (JAK1; IC50 JAK1 (10 nM) (Km ATP), JAK1 10 nM, Km ATP) | microsomal CLint at 1 μM [2] | IC50 (JAK2; IC50 JAK2 ([…]) (Km ATP), Km ATP) | IC50 (JAK2V617F)
1 | CC[C@@H](C#N)NC(=O)c1ccc(-c2nc(Nc3cn[nH]c3)ncc2Cl)cc1 [Example 185, (S)-4-(2-((1H-Pyrazol-4-yl)amino)-5-chloropyrimidin-4-yl)-N-(1-cyanopropyl)benzamide] | 10.9 µM | 2.3 µM | 7.63 µM | 10.7 µM | 6.04 µM | 0.00158 µM | 0.0152 µM | 0.00351 µM |  |  |  |  | 
2 | CC[C@@H](C#N)NC(=O)c1ccc(-c2nc(Nc3cnn(CC#N)c3)ncc2C)cc1 [Example 55, (S)-4-(2-((1-(cyanomethyl)-1H-pyrazol-4-yl)amino)-5-methylpyrimidin-4-yl)-N-(1-cyanopropyl)benzamide] | 21.5 µM | 19 µM | > 50 µM | 44.8 µM | > 50 µM | 0.00433 µM | 0.0487 µM | 0.0482 µM |  |  |  |  | 
3 | Cc1cnc(Nc2cnn(C3CCN(CC(F)F)CC3)c2)nc1-c1ccc(C(=O)NCC#N)cc1 [Example 19, N-(Cyanomethyl)-4-(2-((1-(1-(2,2-difluoroethyl)piperidin-4-yl)-1H-pyrazol-4-yl)amino)-5-methylpyrimidin-4-yl)benzamide] | > 50 µM | > 50 µM | > 50 µM | > 50 µM | > 50 µM |  |  |  | 49.2 µL/min/mg | 0.00192 µM | 33.7 µL/min/mg | 0.00065 µM | 
4 | Cc1cnc(Nc2cnn(CCO)c2)nc1-c1ccc(C(=O)N[C@@H](C)C#N)cc1 [Example 200, (S)—N-(1-cyanoethyl)-4-(2-((1-(2-hydroxyethyl)-1H-pyrazol-4-yl)amino)-5-methylpyrimidin-4-yl)benzamide] | > 50 µM | > 50 µM | > 50 µM | > 50 µM | > 50 µM | 0.00286 µM | 0.0271 µM | 0.0273 µM |  |  |  |  | 
5 | Cc1cnc(Nc2cnn(CCO)c2)nc1-c1ccc(C(=O)N[C@H](C#N)C2CC2)cc1 [Example 215, (S)—N-(cyano(cyclopropyl)methyl)-4-(2-((1-(2-hydroxyethyl)-1H-pyrazol-4-yl)amino)-5-methylpyrimidin-4-yl)benzamide] | > 50 µM | > 50 µM | > 50 µM | > 50 µM | > 50 µM | 0.0057 µM | 0.041 µM | 0.028 µM |  |  |  |  | 
6 | CC[C@@H](C#N)NC(=O)c1ccc(-c2nc(Nc3cnn(CCO)c3)ncc2Cl)cc1 [Example 167, (S)-4-(5-Chloro-2-((1-(2-hydroxyethyl)-1H-pyrazol-4-yl)amino)pyrimidin-4-yl)-N-(1-cyanopropyl)benzamide] | > 50 µM | 37.8 µM | > 50 µM | > 50 µM | 38.1 µM | 0.0012 µM | 0.0044 µM | 0.00264 µM | 14.4 µL/min/mg |  | 7.06 µL/min/mg |  | 
7 | Cc1cnc(Nc2cnn(C3CCC(O)CC3)c2)nc1-c1ccc(C(=O)NCC#N)cc1 (stereo not drawn) [Example 132, N-(Cyanomethyl)-4-(2-((1-(4-hydroxycyclohexyl)-1H-pyrazol-4-yl)amino)-5-methylpyrimidin-4-yl)benzamide] | 31.5 µM | 1.76 µM | 10.4 µM | 24.5 µM | 5.93 µM | 0.00644 µM | < 0.00025 µM | 0.0204 µM |  |  |  |  | 0.00289 µM
